These molecules were tested on CSF Aβ40 (assay: Aβ Reduction In Vivo (rat CSF Aβ40)). Details: male CD IGS rats, 10 mg/kg oral gavage, CSF at 3 hours, change vs vehicle.
Experimental: Assay 5: Aβ Reduction In Vivo
The in vivo efficacy and/or potency of BACE inhibitors (test compounds) can be evaluated using a variety of animal models, including mouse, rat, dog, and monkey, and these animals can be wild type, transgenic, or gene knockout animals.
Generally, animals are administered (by oral gavage, intravenous injection, or by other suitable route) a test compound in doses ranging from, for example, 0.1 mg/kg (mg of compound per kg of animal body weight) to 100 mg/kg formulated in vehicles, such as cyclodextrin, phosphate buffer, hydroxypropyl methylcellulose or other suitable vehicles. One to twenty-four hours following the administration of compound, animals are sacrificed, and tissues (for example, brain, cerebrospinal fluid (CSF), and/or plasma) are collected for analysis of Aβ levels and/or test compound concentrations (Dovey et al., 2001, Journal of Neurochemistry, 76, 173-181). Tissue samples are processed appropriately and then analyzed for the presence of Aβ by specific sandwich ELISA assays based on electrochemiluminescence (ECL) technology.
For example, in the following assay for which data are reported below, male CD IGS rats (body weight approximately 120 g, Charles River Laboratories, Kingston, N.Y.) were used to assess lowering of CSF levels of Aβ1-40 (Aβ40) in the presence of compounds of the invention. At time 0, animals were administered by oral gavage a test compound at a dose of 10 mg/kg in 20% hydroxypropyl-β-cyclodextrin (dosing volume 5 mL/kg). A separate group of animals received 20% hydroxypropyl-β-cyclodextrin alone to serve as the vehicle control group. Three hours after administration, the rats were euthanized with excess CO2. Immediately following euthanasia, CSF was collected from the cisterna magna and quickly frozen on dry ice. Samples were stored at −80° C. until quantification of Aβ40 levels.
The measurement of endogenous rat Aβ40 in CSF relied on the 585 antibody (Ab585, BioSource, NONO585), which specifically recognizes the N-terminal sequence of rodent Aβ40, and on the monoclonal antibody, G2-10, which specifically recognizes the free C-terminus of Aβ40. Ab585 was labeled with biotin (b-Ab585) by first dialyzing the antibody sample extensively versus PBS (pH 7.8) to remove impurities, followed by dilution to between 1 and 2 mg/mL protein concentration. EZ-Link Sulfo-NHS-LC-Biotin (Pierce) was dissolved in PBS (pH 7.8) at a concentration of 1 mg/mL immediately prior to use. Ab585 was labeled with EZ-Link Sulfo-NHS-LC-biotin using a 10:1 biotin:antibody ratio by incubation at room temperature for 1 hour. The labeling reaction was quenched by addition of 1.0 M glycine to a final concentration of 0.1 M followed by 10 minute incubation at room temperature. Glycine was removed by extensive dialysis versus PBS.
For rat CSF Aβ40 determinations, a calibration curve of various concentrations of synthetic rodent Aβ40 was assayed in parallel with rat CSF samples in duplicate using an avidin-coated 96-well MSD plate (Mesoscale Diagnostics). Either 50 μL of rodent Aβ40 standards diluted in PBS (pH 7.4) supplemented with 1% BSA and 1% Tween-20 (standard diluent buffer) or 40 μL of standard diluent buffer plus 10 μL rat CSF were added to each 96 well avidin-coated plate. To each well was added 50 μL of 0.1 M HEPES (pH 7.5), 2% BSA, 2% Tween-20, 0.3 M NaCl (2×Aβ40 buffer) supplemented with the b-Ab585 capture and ruthenylated-G2-10 detection antibodies diluted to 1 μg/mL and 0.5 μg/mL, respectively. Plates were shaken for 1 min on a microplate shaker, covered to protect from light and incubated overnight (˜16 h) at 4° C. For detection, plates were first washed twice with 100 μL of 1×CSF Aβ40 buffer followed by addition of 160 μL of 1×MSD read buffer-T (Mesoscale Diagnostics) diluted in 1×CSF Aβ40 buffer. Plates were read on a MSD Sector Imager 2400 model (Mesoscale Diagnosotics). […]

Compared with `COc1cnc2c(Nc3ccc(F)c([C@]4(C)CS(=O)(=O)C(C)(C)C(N)=N4)c3)nccc2n1` [Ex 47 of WO2014059185, reference compound], `COc1cnc2c(Nc3ccc(F)c([C@]4(C)CS(=O)(=O)[C@@](C)(C5CC5)C(N)=N4)c3)ncnc2n1` [Example 22, (2S,5R)-2-cyclopropyl-5-(2-fluoro-5-((7-methoxypteridin-4-yl)amino)phenyl)-3-imino-2,5-dimethylthiomorpholine 1,1-dioxide] is higher in “Aβ reduction in vivo in rat (Δ% CSF Aβ40 @ 10 mpk)” value: −88% for the first, −70% for the second.

Compared with `COc1cnc2c(Nc3cc([C@]4(C)CS(=O)(=O)[C@@](C)(C5CC5)C(N)=N4)c(F)cn3)nccc2c1` [Example 6, N-{4-[(3R,6S)-6-cyclopropyl-5-imino-3,6-dimethyl-1,1-dioxidothiomorpholin-3-yl]-5-fluoropyridin-2-yl}-3-methoxy-1,7-naphthyridin-8-amine], `C[C@@]1(c2cc(Nc3nccc4cc(C#N)cnc34)ccc2F)CS(=O)(=O)[C@@](C)(C2CC2)C(N)=N1` [Example 18, 8-({3-[(3R,6S)-6-cyclopropyl-5-imino-3,6-dimethyl-1,1-dioxidothiomorpholin-3-yl]-4-fluorophenyl}amino)-1,7-naphthyridine-3-carbonitrile] is higher in “Aβ reduction in vivo in rat (Δ% CSF Aβ40 @ 10 mpk)” value: −92% for the first, −87% for the second.

With `C[C@@]1(c2cc(Nc3ncnc4cc(C#N)cnc34)ccc2F)CS(=O)(=O)[C@@](C)(C2CC2)C(N)=N1` [Example 16, 4-({3-[(3R,6S)-6-cyclopropyl-5-imino-3,6-dimethyl-1,1-dioxidothiomorpholin-3-yl]-4-fluorophenyl}amino)pyrido[3,2-d]pyrimidine-7-carbonitrile] the “Aβ reduction in vivo in rat (Δ% CSF Aβ40 @ 10 mpk)” value was −85%.

`CC1(C)C(=N)N[C@](C)(c2cc(Nc3noc4cc(F)cnc34)ccc2F)CS1(=O)=O` [WO′426 Ex. 30b, reference compound] was tested, and the “Aβ reduction in vivo in rat (Δ% CSF Aβ40 @ 10 mpk)” value was “+6%”.

Source: patent publication US9732088B2, “C2-carbocyclic iminothiazine dioxides as BACE inhibitors, compositions, and their use” (Merck Sharp & Dohme Corp., priority 2014, dated 2017)
